Test results published in patent US11584744B2 (UNIVERSITY OF WASHINGTON, priority 2017, dated 2023).
In brackets after ≈: the same amount, converted by molar mass. Where two headings read alike, the source gives them in different places.

Assays:
[1] = test system: S. aureus MRSA (ATCC 33591); assay: MIC susceptibility testing; format: cell-based, Staphylococcus aureus; details: for MIC: Staphylococcus aureus
Summary of the method: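 CLSI broth microdilution in triplicate, 5×10^5 CFU/mL final, ≤0.5% DMSO; MHB for S. aureus, CA-MHB for E. coli and E. faecium, CA-MHB plus 3% laked horse blood for S. pyogenes (5% CO2).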

[2] = test system: S. aureus MSSA (ATCC 29213); assay: MIC susceptibility testing; format: cell-based, Staphylococcus aureus; details: for MIC: Staphylococcus aureus
E. faecalis (ATCC 29212) = assay: MIC susceptibility testing; format: cell-based; details: Enterococcus faecalis, ATCC29212; read-out: E. faecalis (ATCC 29212) MIC
[3] = test system: S. epidermidis (ATCC 49134); assay: MIC susceptibility testing; format: cell-based; details: Staphylococcus epidermidis, ATCC49134; read-out: S. epidermidis (ATCC 49134) MIC
S. pyogenes (ATCC 19615) = assay: MIC susceptibility testing; format: cell-based; details: Streptococcus pyogenes
[4] = Cytotoxicity testing on mammalian cells (AlamarBlue, 48 hours); format: cell-based; details: human
Method: Cytotoxicity testing on mammalian cells: Compounds were assayed for cytotoxicity against CRL-8155 (human lymphoblasts) and HepG2 cells (human hepatocellular carcinoma). Cells were exposed to serial dilutions of compounds for 48 hours and toxicity was quantified using AlamarBlue (ThermoFisher Scientific, Waltham, Mass.). Assays were performed in quadruplicate and EC50 values were calculated with non-linear regression methods using software by the Collaborative Drug Database (Burlingame, Calif. www.collaborativedrug.com)

E. coli MB4902 (lpxC) = assay: microbe, parasite or virus in culture; format: cell-based; details: Escherichia coli, read-out: MIC MB4902 (lpxC)
Method: (§1) Bacterial strains. Strains with ATCC designations were either obtained directly from the American Type Culture Collection (Manassas, Va.) or were kindly provided by the University of Washington Clinical Microbiology laboratory. Escherichia coli permeability mutants (properties shown in Table 1) were provided as a gift from Dr. Katherine Young at Merck (Rahway, N.J.).
(§2) Susceptibility testing: Minimum inhibitory concentration (MIC) determinations were performed in triplicate in 96-well round bottom microtiter plates (Corning, Corning N.Y.) as described by the Clinical and Laboratory Standards Institute (CLSI). Serial two-fold dilutions of compounds were added to plates in 50 μL volumes. An additional 50 μL of media containing bacterial cells (1×10^6 CFUs/mL) was then added to each well. Maximum DMSO concentrations were 0.5%. Plates were incubated at 37° C. for at least 18 h before reading the susceptibility result by optical absorbance (OD600) using a BioTek ELx800. The lowest concentration causing ≥90% growth inhibition compared to the untreated control was recorded as the MIC (and also corresponded to the visual MIC). MICs were measured at least twice and the higher value (if different) was recorded herein.

[5] = test system: E. coli MB5746 (lpxC, tolC); assay: microbe, parasite or virus in culture; format: cell-based; details: Escherichia coli, read-out: MIC MB5746 (lpxC, tolC)
Method: as §1, §2

E. coli MB5747 (tolC) = assay: microbe, parasite or virus in culture; format: cell-based; details: Escherichia coli, read-out: MIC MB5747 (tolC)
Method: as §1, §2

S. aureus (ATCC 29213) = assay: MBC determinations (with MIC); format: cell-based; details: Staphylococcus aureus, ATCC29213, S. aureus (ATCC 29213); for MIC: MBC experiment (Table 5), read-out: MIC; for MBC: concentration killing 99.9% of inoculum, read-out: MBC
Method: Maximum DMSO concentrations were 0.5%. […] Each experiment's inoculum was serially diluted and plated on TSA to count competent cells. Cultures were incubated at 37° C. for at least 20 h and plated on TSA for CFU determination.
MIC/MBC: Measurements of minimum bactericidal concentrations (MBCs) were done with the S. aureus strain ATCC 29213 (Table 5).

[6] = Murine pharmacokinetics studies (oral, dried blood spots); format: in vivo, mice; details: 50 mg/kg single oral dose; for Cmax / AUC(0-t): mouse, whole blood (dried blood spots); for Cmax: po, 50 mg/kg, read-out: Mouse Oral PK DBS: Average Cmax; for AUC(0-t): read-out: Mouse Oral PK DBS: Average AUC(0-24 h) (converted)
Method: Murine pharmacokinetics studies. The methods were performed as previously described. Briefly, test compounds were administered to mice by oral gavage (3 mice per compound) followed by tail blood sampling at intervals of 30, 60, 120, 240, 360, 480, and 1440 min. Blood samples were analyzed by extracting dried blood spots in acetonitrile for measurements of compound concentrations by liquid chromatography/tandem mass spectrometry.
Pharmacokinetics studies: Selected compounds were administered to mice in single oral doses at 50 mg/kg and tail blood was sampled at time intervals out to 24 h to assess blood exposure (Table 9).

MetRS (C. parvum) = MetRS (C. parvum) (Cryptosporidium parvum, UniProt Q5CVN0); assay: MetRS (C. parvum) enzyme inhibition; format: biochemical; details: read-out: (C) MetRS (C. parvum) IC50
MetRS (C. parvum), sequence (Q5CVN0 entry or part of it): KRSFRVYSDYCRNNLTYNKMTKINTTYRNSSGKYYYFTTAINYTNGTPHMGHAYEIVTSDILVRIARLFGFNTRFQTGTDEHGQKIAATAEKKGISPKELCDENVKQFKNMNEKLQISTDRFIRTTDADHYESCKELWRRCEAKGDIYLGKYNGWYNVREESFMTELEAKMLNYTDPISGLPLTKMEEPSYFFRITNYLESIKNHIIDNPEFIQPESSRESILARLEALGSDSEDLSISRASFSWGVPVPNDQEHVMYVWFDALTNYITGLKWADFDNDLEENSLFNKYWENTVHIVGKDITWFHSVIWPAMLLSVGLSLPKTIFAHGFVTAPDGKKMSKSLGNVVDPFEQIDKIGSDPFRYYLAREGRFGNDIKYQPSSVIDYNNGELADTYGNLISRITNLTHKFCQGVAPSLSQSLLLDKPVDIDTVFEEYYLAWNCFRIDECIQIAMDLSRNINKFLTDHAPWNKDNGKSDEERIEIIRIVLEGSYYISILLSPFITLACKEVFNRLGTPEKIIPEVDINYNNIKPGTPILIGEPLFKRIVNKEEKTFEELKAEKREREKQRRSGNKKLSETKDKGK

[7] = MRSA ATCC33591, read-out: (G) MRSA (ATCC33591) MIC
[8] = read-out: S. aureus MRSA (ATCC 33591) MIC
[9] = 18 h, read-out: S. aureus MSSA (ATCC 29213) MIC
[10] = ATCC19615, 18 h, medium with 3% laked horse blood, read-out: S. pyogenes (ATCC 19615) MIC
[11] = ATCC19615, S. pyogenes ATCC 19615, read-out: (H) S. pyogenes (ATCC 19615) MIC
[12] = CRL-8155 cells (human lymphoblasts), read-out: Mamm. cells (CRL8155) CC50
[13] = HepG2 cells (human hepatocellular carcinoma), read-out: Mamm. cells (HepG2) CC50

| SMILES | MIC [1, 7] [µg/mL] | MIC [1, 8] [µg/mL] | MIC [2, 9] [µg/mL] | MIC (E. faecalis (ATCC 29212)) [µg/mL] | MIC [3] [µg/mL] | MIC (S. pyogenes (ATCC 19615); [10]) [µg/mL] | CC50 at 48 h [4, 12] [µg/mL] | CC50 at 48 h [4, 13] [µg/mL] | MIC (E. coli MB4902 (lpxC)) [µg/mL] | MIC [5] [µg/mL] | MIC (E. coli MB5747 (tolC)) [µg/mL] | MIC (S. aureus (ATCC 29213)) [µg/mL] | MBC (S. aureus (ATCC 29213)) [µg/mL] | Cmax [6] [ng/mL] | AUC(0-t) [6] [ng·h/mL] | IC50 (MetRS (C. parvum)) [nM] | other results |
| --- | --- | --- | --- | --- | --- | --- | --- | --- | --- | --- | --- | --- | --- | --- | --- | --- | --- |
| CCn1c(Cc2ccc(OC)cc2Cl)cn(Cc2nc3nc(Cl)ccc3[nH]2)c1=O [Compound 2093, 1-({5-chloro-1H-imidazo[4,5-b]pyridin-2-yl}methyl)-4-[(2-chloro-4-methoxyphenyl)methyl]-3-ethyl-2,3-dihydro-1H-imidazol-2-one] | 0.123 (≈ 0.285 µM) | 0.313 (≈ 0.724 µM) | 0.039 (≈ 0.0902 µM) | 0.156 (≈ 0.361 µM) | 1.25 (≈ 2.89 µM) | 1.25 (≈ 2.89 µM) | > 21.6 | > 21.6 | > 20 | > 20 | > 20 | 0.078 (≈ 0.18 µM) | 1.25 (≈ 2.89 µM) | 7570 ± 2290 | 20400 | < 40 | (G) MRSA (ATCC33591) MIC ([1]; MRSA ATCC33591): 0.225 µg/mL; MIC (S. pyogenes (ATCC 19615); [11]): 0.678 µg/mL (≈ 1.57 µM) |
| COc1cc(Cl)c(-c2cccc3nc(Cc4nc5nc(Cl)ccc5[nH]4)cn23)cc1OC [Compound 2144, 2-({5-chloro-1H-imidazo[4,5-b]pyridin-2-yl}methyl)-5-(2-chloro-4,5-dimethoxyphenyl)imidazo[1,2-a]pyridine] | 0.033 (≈ 0.0726 µM) | 0.039 (≈ 0.0858 µM) | 0.0195 (≈ 0.0429 µM) | 0.0195 (≈ 0.0429 µM) | 0.313 (≈ 0.689 µM) | 1.25 (≈ 2.75 µM) | > 11.3 | > 11.3 | > 20 | > 20 | > 20 | 0.01 (≈ 0.022 µM) | 0.313 (≈ 0.689 µM) | ~9000 | 63200 | 40.9 | (G) MRSA (ATCC33591) MIC ([1]; MRSA ATCC33591): 0.0216, μg/mL; Mouse Oral PK DBS: Average Cmax [6]: 8950 ± 1380 ng/mL |
| CC(=O)NC[C@H]1CN(c2ccc(N3CCOCC3)c(F)c2)C(=O)O1 [LNZ, linezolid] |  | 1.25 (≈ 3.71 µM) | 2.5 (≈ 7.41 µM) | 2.5 (≈ 7.41 µM) | 0.625 (≈ 1.85 µM) | 1.25 (≈ 3.71 µM) | > 33.7 | > 33.7 |  |  |  | 2.5 (≈ 7.41 µM) | 160 (≈ 474 µM) | 26500 ± 15200 | 94400 |  |  |
| CCn1c(Cc2ccc(OC)cc2Cl)cn(Cc2nc3nc(F)ccc3[nH]2)c1=O [Compound 2114, 4-[(2-chloro-4-methoxyphenyl)methyl]-3-ethyl-1-({5-fluoro-1H-imidazo[4,5-b]pyridin-2-yl}methyl)-2,3-dihydro-1H-imidazol-2-one] | 1.53 (≈ 3.68 µM) |  | 0.313 (≈ 0.753 µM) | 0.625 (≈ 1.5 µM) | 1.25 (≈ 3.01 µM) |  | > 20.8 | > 20.8 |  |  |  |  |  | 5450 ± 750 | 15000 | < 40 | (F) S. aureus (ATCC 29213) MIC ([2]; S. aureus ATCC 29213): 0.192 µg/mL; MIC ([2]; S. aureus ATCC 29213, read-out: (F) S. aureus (ATCC 29213) MIC): 0.129 µg/mL (≈ 0.31 µM); MIC (S. pyogenes (ATCC 19615); [11]): 0.754 µg/mL (≈ 1.81 µM) |
| CCn1c(Cc2ccc(Cl)cc2Cl)cn(Cc2nc3nc(F)ccc3[nH]2)c1=O [Compound 2062, 4-[(2,4-dichlorophenyl)methyl]-3-ethyl-1-({5-fluoro-1H-imidazo[4,5-b]pyridin-2-yl}methyl)-2,3-dihydro-1H-imidazol-2-one] |  |  | 0.078 (≈ 0.186 µM) | 1.25 (≈ 2.97 µM) | 1.25 (≈ 2.97 µM) |  | > 21 | > 21 |  |  |  |  |  |  |  | < 40 |  |
| Fc1ccc2nc(NCCCN[C@@H]3CCNc4c(Cl)cc(Cl)cc43)[nH]c2n1 [Compound 1717, (4R)-6,8-dichloro—N-[3-({5-fluoro-3H-imidazo[4,5-b]pyridin-2-yl}amino)propyl]-1,2,3,4-tetrahydroquinolin-4-amine, reference compound] |  | 0.078 (≈ 0.191 µM) | 0.156 (≈ 0.381 µM) | 0.078 (≈ 0.191 µM) | 0.313 (≈ 0.765 µM) | 2.5 (≈ 6.11 µM) | 5.8 (≈ 14.2 µM) | 10.4 (≈ 25.4 µM) | > 20 | > 20 | > 20 | 0.156 (≈ 0.381 µM) | 5 (≈ 12.2 µM) | ~1500 | 15700 |  | MIC ([2]; read-out: MIC against S. aureus): 0.156 µg/mL (≈ 0.381 µM) |
| Fc1ccc2nc(NCCCNCc3cc(Cl)cc(Cl)c3)[nH]c2n1 [Compound 1614, [(3,5-dichlorophenyl)methyl][3-({5-fluoro-3H-imidazo[4,5-b]pyridin-2-yl}amino)propyl]amine] |  | 5 (≈ 13.6 µM) | 2.5 (≈ 6.79 µM) | 1.25 (≈ 3.39 µM) | 10 (≈ 27.2 µM) | > 10 | 14.8 (≈ 40.2 µM) | > 18.4 |  |  |  |  |  |  |  |  |  |
